Measurements taken from patent US6548544B1, “Method of treatment of priapism without raising systemic blood pressure” (The National University of Singapore, priority 1999, dated 2003).

Columns and labels:
[1] = system: Pharmacologically Induced Prolonged Erection (Pipe); assay: Effect on papaverine- and phenoxybenzamine-induced prolonged erection (PIPE), penile length, baboons; format: in vivo, baboon
Experimental: (§1) Six male baboons weighing between 8 kg and 12 kg were used for the experiment. The animals were sedated with ketamine and anaesthetised with intravenous pentobarbitone injected through an indwelling venous catheter. Drugs were injected into the right corpora cavornosa at the mid-third of the shaft using a 29G needle and 1 ml syringe. Blood pressure was monitored through a cannulated femoral artery connected to the transducer. A measuring tape was used to measure penile length visually from a marked point at the base of the penis to the tip of urethral orifice. Changes in penile length were recorded for a period of 100 min after injection.
Intracavernous injection of papaverine (40 mg) or phenoxybenzamine (3 mg) which produced maximal penile length within 20 and 40 min were repeated one week later and prostaglandin A2 was given at the peak time of the turgidity.
(§2) In baboons, intracavernous injection of papaverine (40 mg) or phenoxybenzamine (3 mg) produced a 130% increase in penile length within […] after administration (Table 1). This increase in penile length lasted for more than 100 min. This was repeated one week later and when prostaglandin A2 was injected intracavernosally at the maximum rigidity 20 min after the drug administration, the latter produced a marked reduction in penile length and within 40 min of injection, the penile size reduced to the original state of rugosity (Table 1). The fall in systemic blood pressure produced by prostaglandin A2 ranged from 8 to 16 mmHg. Each value reported in Table 1 represents the mean of six experiments.

[2] = design: species or system baboon; settings: in vivo
Experimental: as §1, §2

[3] = system: prolonged erection induced by 60 mg of papaverine; assay: Effect on papaverine-induced prolonged erection in human patients and volunteers; format: in vivo; settings: for Mean Decrease in Length of Turgid Penis %: erection induced by 60 mg papaverine
Experimental: In human patients and human volunteers, intracavernous injection of prostaglandin A2 (150 μg) was tested on prolonged erection (lasting more than 4 hours) induced by 60 mg of papaverine.
This was corrected by an additional injection of prostaglandin A2 (100 μg). The fall in mean systemic blood pressure ranged from 7 to 10 mmHg (Table 2).

[4] = system: human corpora cavernosa muscle; assay: Contractile response of human corpus cavernosum smooth muscle in vitro; format: cell-based
Description: FIG. 2 is a graphical representation showing contractile response of prostaglandin A2 on human corpus cavernosum smooth muscle.
Prostaglandin A2 is 8.2 times stronger than noradrenaline in contracting human corpora cavernosa muscle in vitro and 500, 2.5 and 50 times stronger than dopamine, adrenaline and aramine, respectively (FIG. 2).

[5] = system: cavernous nerve stimulation-induced intracavernous pressure increase; assay: Intracavernous pressure (ICP) response to cavernous nerve stimulation, in vivo rat model; design: species or system Sprague Dawley rats; settings: for Cavernous pressure (mmHg) recording: nerve stimulation
Experimental: The cavernous nerve is a relatively well-defined nerve that exits from the major pelvic ganglion and carries a large component of the autonomic input to the penis. Through electrical stimulation of this nerve, the changes in the peripheral neural mechanisms controlling penile erection can be observed in the animal model. The responses are recorded as concomitant alterations in the ICP following stimulation of this nerve branch.

[6] = rat, in vivo
Experimental: METHOD: Male Sprague Dawley rats (500-700 g) were anaesthetized with sodium pentobarbital (45 mg/kg, intraperitoneal) and the trachea intubated (14G jelco catheter) for respiration. The left external jugular vein and the right common carotid artery were cannulated (PE 50 tubing) for drug infusion and blood pressure monitoring respectively. Through a lower median abdominal incision, the lateral prostate was exposed and the fascia around the cavernous nerve separated through fine dissection. The exposed nerve was suspended on bipolar hook electrode for stimulation. Through transverse perineal incision, a 27G needle was inserted into the penile crus for pressure recording. Systemic and intracavernous pressures were measured by transducers (Ugo Basile) and recorded with MacLab analogue-digital converter (AD instruments). To initiate the experiment, the cavernous nerve was stimulated with square wave pulses of 1 millisecond duration at 20 Hertz and 2 volts with the resting ICP recording.

## CCCCC[C@H](O)/C=C/[C@H]1C=CC(=O)[C@@H]1C/C=C\CCCC(=O)O [AS-8, prostaglandin A2]
[1]; papaverine 40 mg followed by AS-8 100 μg 20 min later, 1 min after injection
  Mean Change in Penile Length (% of Control): 32%
[1]; papaverine 40 mg followed by AS-8 100 μg 20 min later, 2 min after injection
  Mean Change in Penile Length (% of Control): 38%
[1]; papaverine 40 mg followed by AS-8 100 μg 20 min later, 5 min after injection
  Mean Change in Penile Length (% of Control): 65%
[1]; papaverine 40 mg followed by AS-8 100 μg 20 min later, 10 min after injection
  Mean Change in Penile Length (% of Control): 130%
[1]; papaverine 40 mg followed by AS-8 100 μg 20 min later, 20 min after injection
  Mean Change in Penile Length (% of Control): 142%
[1]; papaverine 40 mg followed by AS-8 100 μg 20 min later, 40 min after injection
  Mean Change in Penile Length (% of Control): 15%
[1]; papaverine 40 mg followed by AS-8 100 μg 20 min later, 60 min after injection
  Mean Change in Penile Length (% of Control): 0%
[1]; papaverine 40 mg followed by AS-8 100 μg 20 min later, 80 min after injection
  Mean Change in Penile Length (% of Control): 0%
[1]; papaverine 40 mg followed by AS-8 100 μg 20 min later, 100 min after injection
  Mean Change in Penile Length (% of Control): 0%
[1]; phenoxybenzamine 3 mg followed by AS-8 100 μg 20 min later, 1 min after injection
  Mean Change in Penile Length (% of Control): 7%
[1]; phenoxybenzamine 3 mg followed by AS-8 100 μg 20 min later, 2 min after injection
  Mean Change in Penile Length (% of Control): 15%
[1]; phenoxybenzamine 3 mg followed by AS-8 100 μg 20 min later, 5 min after injection
  Mean Change in Penile Length (% of Control): 20%
[1]; phenoxybenzamine 3 mg followed by AS-8 100 μg 20 min later, 10 min after injection
  Mean Change in Penile Length (% of Control): 38%
[1]; phenoxybenzamine 3 mg followed by AS-8 100 μg 20 min later, 20 min after injection
  Mean Change in Penile Length (% of Control): 85%
[1]; phenoxybenzamine 3 mg followed by AS-8 100 μg 20 min later, 40 min after injection
  Mean Change in Penile Length (% of Control): 10%
[1]; phenoxybenzamine 3 mg followed by AS-8 100 μg 20 min later, 60 min after injection
  Mean Change in Penile Length (% of Control): 0%
[1]; phenoxybenzamine 3 mg followed by AS-8 100 μg 20 min later, 80 min after injection
  Mean Change in Penile Length (% of Control): 0%
[1]; phenoxybenzamine 3 mg followed by AS-8 100 μg 20 min later, 100 min after injection
  Mean Change in Penile Length (% of Control): 0%
[1]; prostaglandin A2 intracavernosally at maximum rigidity 20 min after papaverine or phenoxybenzamine
  time until penile size reduced to the original state of rugosity: ≤ 40 min
[2]
  fall in systemic blood pressure: 8-16 mmHg
[3]; Patients (2), 150 μg intracavernous, 1 min after AS-8 injection
  Mean Decrease in Length of Turgid Penis %: 10%
[3]; Patients (2), 150 μg intracavernous, 5 min after AS-8 injection
  Mean Decrease in Length of Turgid Penis %: 50%
[3]; Patients (2), 150 μg intracavernous, 10 min after AS-8 injection
  Mean Decrease in Length of Turgid Penis %: 80%
[3]; Patients (2), 150 μg intracavernous, 20 min after AS-8 injection
  Mean Decrease in Length of Turgid Penis %: 90%
[3]; Patients (2), 150 μg intracavernous, 30 min after AS-8 injection
  Mean Decrease in Length of Turgid Penis %: 100%
[3]; Volunteers (3), 150 μg intracavernous, 1 min after AS-8 injection
  Mean Decrease in Length of Turgid Penis %: 10%
[3]; Volunteers (3), 150 μg intracavernous, 5 min after AS-8 injection
  Mean Decrease in Length of Turgid Penis %: 30%
[3]; Volunteers (3), 150 μg intracavernous, 10 min after AS-8 injection
  Mean Decrease in Length of Turgid Penis %: 75%
[3]; Volunteers (3), 150 μg intracavernous, 20 min after AS-8 injection
  Mean Decrease in Length of Turgid Penis %: 80%
[3]; Volunteers (3), 150 μg intracavernous, 30 min after AS-8 injection
  Mean Decrease in Length of Turgid Penis %: 95%
[3]; patients and volunteers, erection induced by 60 mg papaverine for 4 hours or more, 150 μg intracavernous
  subjects with maximal reduction in rigidity and penile length to the rugose state within 30 min after injection: four out of five subjects
[3]; volunteers, first injection 150 μg, corrected by additional injection of 100 μg
  relapse of tumescence after first injection: In one volunteer, there was a relapse of tumescence within 60 min
[4]; versus adrenaline
  times stronger than adrenaline in contracting human corpora cavernosa muscle: 2.5 times
[4]; versus aramine
  times stronger than aramine in contracting human corpora cavernosa muscle: 50 times
[4]; versus dopamine
  times stronger than dopamine in contracting human corpora cavernosa muscle: 500 times
[4]; versus noradrenaline
  times stronger than noradrenaline in contracting human corpora cavernosa muscle: 8.2 times
[5]
  prevention of intracavernous pressure increase to cavernous nerve stimulation: prevents, in a dose-dependent manner
[5]; intracavernous AS-8, all the doses tested, Analysis of Variance
  cavernous pressure elevations to subsequent nerve stimulations: significantly suppressed
[5]; AS-8 1 μg intracavernous, 2 Min after, Control before 45.76 ± 1.46
  Cavernous pressure (mmHg) recording: 26.48 ± 4.62 mmHg
[5]; AS-8 1 μg intracavernous, 5 Min after, Control before 45.76 ± 1.46
  Cavernous pressure (mmHg) recording: 22.48 ± 3.21 mmHg
[5]; AS-8 1 μg intracavernous, 10 Min after, Control before 45.76 ± 1.46
  Cavernous pressure (mmHg) recording: 26.94 ± 4.77 mmHg
[5]; AS-8 1 μg intracavernous, 20 Min after, Control before 45.76 ± 1.46
  Cavernous pressure (mmHg) recording: 24.42 ± 6.87 mmHg
[5]; AS-8 1 μg intracavernous, 30 Min after, Control before 45.76 ± 1.46
  Cavernous pressure (mmHg) recording: 22.40 ± 5.34 mmHg
[5]; AS-8 1 μg intracavernous, 30 Sec after, Control before 45.76 ± 1.46
  Cavernous pressure (mmHg) recording: 33.83 ± 3.09 mmHg
[5]; AS-8 2 μg intracavernous, 2 Min after, Control before 40.60 ± 2.58
  Cavernous pressure (mmHg) recording: 22.29 ± 9.96 mmHg
[5]; AS-8 2 μg intracavernous, 5 Min after, Control before 40.60 ± 2.58
  Cavernous pressure (mmHg) recording: 26.42 ± 4.42 mmHg
[5]; AS-8 2 μg intracavernous, 10 Min after, Control before 40.60 ± 2.58
  Cavernous pressure (mmHg) recording: 24.49 ± 7.39 mmHg
[5]; AS-8 2 μg intracavernous, 20 Min after, Control before 40.60 ± 2.58
  Cavernous pressure (mmHg) recording: 31.84 ± 5.54 mmHg
[5]; AS-8 2 μg intracavernous, 30 Min after, Control before 40.60 ± 2.58
  Cavernous pressure (mmHg) recording: 29.62 ± 4.62 mmHg
[5]; AS-8 2 μg intracavernous, 30 Sec after, Control before 40.60 ± 2.58
  Cavernous pressure (mmHg) recording: 35.29 ± 3.29 mmHg
[5]; AS-8 4 μg intracavernous, 2 Min after, Control before 46.40 ± 1.59
  Cavernous pressure (mmHg) recording: 16.07 ± 1.00 mmHg
[5]; AS-8 4 μg intracavernous, 5 Min after, Control before 46.40 ± 1.59
  Cavernous pressure (mmHg) recording: 14.90 ± 1.71 mmHg
[5]; AS-8 4 μg intracavernous, 10 Min after, Control before 46.40 ± 1.59
  Cavernous pressure (mmHg) recording: 15.00 ± 6.71 mmHg
[5]; AS-8 4 μg intracavernous, 20 Min after, Control before 46.40 ± 1.59
  Cavernous pressure (mmHg) recording: 18.30 ± 6.40 mmHg
[5]; AS-8 4 μg intracavernous, 30 Min after, Control before 46.40 ± 1.59
  Cavernous pressure (mmHg) recording: 17.05 ± 5.86 mmHg
[5]; AS-8 4 μg intracavernous, 30 Sec after, Control before 46.40 ± 1.59
  Cavernous pressure (mmHg) recording: 25.91 ± 5.57 mmHg
[6]
  mean systemic blood pressure change: concurrent reduction in mean systemic blood pressure
